{"source": "paper PMC7419507", "about": "“In vitro Cas9-assisted editing of modular polyketide synthase genes to produce desired natural product derivatives” (Nature Communications, 2020)", "test_system": "Jurkat, SKOV-3 and MESO-1 cells", "assay": "Cytotoxicity assay, statements for all tested cell lines together", "type": "cell-based", "details": "Jurkat, SKOV-3 and MESO-1 cells, 72 h", "procedure": "Jurkat cells were cultured in RPMI1640 medium supplemented with 10% foetal bovine serum, penicillin (50 U/ml), streptomycin (50 μg/ml), and Glutamax. SKOV-3 cells were cultured in DMEM medium supplemented with 10% fetal bovine serum, penicillin (50 U/ml), and streptomycin (50 μg/ml). MESO-1 cells were cultured in RPMI1640 medium supplemented with 10% fetal bovine serum, penicillin (50 U/ml), and streptomycin (50 μg/ml). All cell lines were seeded in a 384-well plate at a density of 1000 cells/well in 20 μl of media and incubated at 37 °C in a humidified incubator with 5% CO2. After 4 h, 2-fold dilution samples resolved in DMSO were added to the cell culture at the concentration of 0.5% (0.1 μl) and incubated for 72 h. Cell viabilities were measured using a CellTiter-Glo luminescent cell viability assay and EnVision multilabel plate reader."}
{"compound": "COc1cc([C@@H]2c3cc4c(cc3[C@@H](O[C@@H]3O[C@@H]5CO[C@@H](C)O[C@H]5[C@H](O)[C@H]3O)[C@H]3COC(=O)[C@H]23)OCO4)cc(OC)c1O", "note": "[etoposide, reference compound]", "values": [{"measurement": "Effect on cell viability, in words", "result": "typical cytotoxic activities"}]}
